Results reported in patent US5912247A, “Quinazoline compound and anti-tumor agent containing said compound as an active ingredient” (Kanebo, Ltd., priority 1995, dated 1999).
Counter-ions that a name gives are not always drawn.

System: Colon 26 solid tumor
Test: Inhibitory activity of dye accumulation in the solid tumor tissue (inhibition of the tumor blood flow)
Assay type: in vivo, Male BALB/c mice
Parameters: key to Inhibitory activity of dye accumulation into solid tumor: +: The average absorbance in the test group is significantly smaller than the average absorbance in the control group.; -: There is no significant difference in the average absorbance between the test group and the control group
Settings: intravenous, Evans blue 1 hour after administration
Experimental: Inhibitory activity of dye accumulation in the solid tumor tissue (inhibition of the tumor blood flow): a) Materials: Test Animal: Male BALB/c mice (weighing 21-27 g, six mice per group) Tumor: Colon 26 solid tumor b) Test Method: Colon 26 solid tumor was cut in a size of about 1 mm square. The pieces of solid tumor were treated with a 0.25% collagenase solution and 0.02% deoxyribonuclease solution at 37° C. for 1.5 hour to give a cell suspension of colon 26 solid tumor cells. The cell suspension was adjusted to 3×10^6 cells/ml and the cell suspension (100 μl) was subcutaneously inoculated on the right back of male BALB/c mice. Ten days after the transplantation, the longitudinal size of the tumor was measured, and when the longitudinal size of the tumor reached about 10 mm, the mice were randomized. To the mice in test groups, the test compound was intravenously administered in an amount of 10 mg/kg or 1.25 mg/kg. The test compound was administered in the form of a solution in saline (in the test solution of Test Compound BF and BK, an equimolar amount of fumaric acid was further added, and in the test solution of Test Compound BN, an equimolar amount of hydrochloric acid was further added). To the mice in the control group, only saline was administered intravenously. One hour after the administration, 3% Evans blue-saline solution was injected intravenously via the tail vein of the mice in a volume of 0.1 ml per 10 g of the body weight of mouse, and 5 minutes later the mice were killed by luxation of the cervical vertebrae. After removing the tumor, the tumor was weighed. To extract Evans blue, the tumor was suspensed in 0.5% aqueous sodium sulfate (1.5 ml per 1 g of the tumor) and acetone (3.5 ml per 1 g of tumor), and then the tumor was cut into small pieces. After allowing to stand at room temperature overnight, the suspension were centrifuged at 3,000 rpm for 10 minutes to extract Evans blue, and the absorbance of the supernatant was read at 630 nm. […] (-): There is no significant difference in the average absorbance between the test group and the control group.

CC(=O)O.OCC(O)COc1nc(N2CCNCC2)nc2ccccc12 (racemic) [Compound BB, 4-[(RS)-(2,3-Dihydroxypropyl)oxy]-2-(1-piperazinyl)quinazoline monoacetate]
Inhibitory activity of dye accumulation into solid tumor (1.25 mg/kg): + | Inhibitory activity of dye accumulation into solid tumor (10 mg/kg): +

CC(=O)O.C[C@H](O)[C@@H](C)Oc1nc(N2CCNCC2)nc2ccccc12 (racemic) [Compound BC, 4-[(2RS,3SR)-(3-Hydroxybutan-2-yl)oxy]-2-(1-piperazinyl)quinazoline monoacetate]
Inhibitory activity of dye accumulation into solid tumor (1.25 mg/kg): + | Inhibitory activity of dye accumulation into solid tumor (10 mg/kg): +

C[C@@H](O)[C@H](O)COc1nc(N2CCNCC2)nc2ccccc12 (racemic) [Compound BF, 4-[(2RS,3RS)-(2,3-Dihydroxybutan-1-yl)oxy]-2-(1-piperazinyl)quinazoline]
Inhibitory activity of dye accumulation into solid tumor (1.25 mg/kg): + | Inhibitory activity of dye accumulation into solid tumor (10 mg/kg): +

OC[C@H](O)[C@H](O)COc1nc(N2CCNCC2)nc2ccccc12 (racemic) [Compound BK, 4-[(2RS,3SR)-(2,3,4-Trihydroxybutan-1-yl)oxy]-2-(1-piperazinyl)quinazoline]
Inhibitory activity of dye accumulation into solid tumor (1.25 mg/kg): + | Inhibitory activity of dye accumulation into solid tumor (10 mg/kg): +

CC(=O)O.O[C@@H]1CCC[C@H]1Oc1nc(N2CCNCC2)nc2ccccc12 (relative stereo) [Compound AA, 4-[trans-(2-Hydroxycyclopentan-1-yl)oxy]-2-(1-piperazinyl)quinazoline monoacetate]
Inhibitory activity of dye accumulation into solid tumor (1.25 mg/kg): + | Inhibitory activity of dye accumulation into solid tumor (10 mg/kg): +

CC(=O)O.O[C@H]1CCC[C@H]1Oc1nc(N2CCNCC2)nc2ccccc12 (relative stereo) [Compound AB, 4-[cis-(2-Hydroxycyclopentan-1-yl)oxy]-2-(1-piperazinyl)quinazoline monoacetate]
Inhibitory activity of dye accumulation into solid tumor (1.25 mg/kg): - | Inhibitory activity of dye accumulation into solid tumor (10 mg/kg): +

CC(=O)O.O[C@@H]1COC[C@H]1Oc1nc(N2CCNCC2)nc2ccccc12 (relative stereo) [Compound AF, 4-[trans-(4-Hydroxytetrahydrofuran-3-yl)oxy]-2-(1-piperazinyl)quinazoline monoacetate]
Inhibitory activity of dye accumulation into solid tumor (1.25 mg/kg): + | Inhibitory activity of dye accumulation into solid tumor (10 mg/kg): +

O[C@@H]1COC[C@@H]1Oc1nc(N2CCNCC2)nc2ccccc12 (relative stereo) [Compound AG, 4-[cis-(4-Hydroxytetrahydrofuran-3-yl)oxy]-2-(1-piperazinyl)quinazolinemonoacetate]
Inhibitory activity of dye accumulation into solid tumor (1.25 mg/kg): + | Inhibitory activity of dye accumulation into solid tumor (10 mg/kg): +

O[C@@H]1[C@@H](Oc2nc(N3CCNCC3)nc3ccccc23)CC[C@@H]1O (relative stereo) [Compound AL, 4-[(t-2,t-3-Dihydroxycyclopentan-r-1-yl)oxy]-2-(1-piperazinyl)quinazoline monoacetate]
Inhibitory activity of dye accumulation into solid tumor (1.25 mg/kg): + | Inhibitory activity of dye accumulation into solid tumor (10 mg/kg): +

O[C@@H]1[C@H](O)[C@@H](Oc2nc(N3CCNCC3)nc3ccccc23)C[C@H]1O (relative stereo) [Compound AO, 4-[(t-2,t-3,c-4-Trihydroxycyclopentan-r-1-yl)-oxy]-2-(1-piperazinyl)quinazoline 1/2 fumarate]
Inhibitory activity of dye accumulation into solid tumor (1.25 mg/kg): + | Inhibitory activity of dye accumulation into solid tumor (10 mg/kg): +

CC(=O)O.OC1CCC(Oc2nc(N3CCNCC3)nc3ccccc23)C1 (stereo not shown) [Compound AC, 4-[(3-Hydroxycyclopentan-1-yl)oxy]-2-(1-piperazinyl)quinazoline monoacetate]
Inhibitory activity of dye accumulation into solid tumor (1.25 mg/kg): + | Inhibitory activity of dye accumulation into solid tumor (10 mg/kg): +

O[C@H]1CCC[C@@H]1Oc1nc(N2CCNCC2)nc2ccccc12 [Compound AD, 4-[(1S,2S)-(2-Hydroxycyclopentan-1-yl)oxy]-2-(1-piperazinyl)quinazolinemonoacetate]
Inhibitory activity of dye accumulation into solid tumor (1.25 mg/kg): + | Inhibitory activity of dye accumulation into solid tumor (10 mg/kg): +

O[C@@H]1CCC[C@H]1Oc1nc(N2CCNCC2)nc2ccccc12 [Compound AE, 4-[(1R,2R)-(2-Hydroxycyclopentan-1-yl)oxy]-2-(1-piperazinyl)quinazolinemonoacetate]
Inhibitory activity of dye accumulation into solid tumor (1.25 mg/kg): + | Inhibitory activity of dye accumulation into solid tumor (10 mg/kg): +

CC(=O)O.O[C@H]1COC[C@@H]1Oc1nc(N2CCNCC2)nc2ccccc12 [Compound AH, 4-[(3S,4S)-(4-Hydroxytetrahydrofuran-3-yl)oxy]-2-(1-piperazinyl)quinazoline monoacetate]
Inhibitory activity of dye accumulation into solid tumor (1.25 mg/kg): + | Inhibitory activity of dye accumulation into solid tumor (10 mg/kg): +

O[C@@H]1COC[C@H]1Oc1nc(N2CCNCC2)nc2ccccc12 [Compound AJ, 4-[(3R,4R)-(4-Hydroxytetrahydrofuran-3-yl)-oxy]-2-(1-piperazinyl)quinazoline 1/2 hydrochloride]
Inhibitory activity of dye accumulation into solid tumor (1.25 mg/kg): + | Inhibitory activity of dye accumulation into solid tumor (10 mg/kg): +

Cl.O[C@@H]1COC[C@H]1Oc1nc(N2CCNCC2)nc2ccccc12 [Compound AK, 4-[(3R,4R)-(4-Hydroxytetrahydrofuran-3-yl)-oxy]-2-(1-piperazinyl)quinazoline monohydrochloride]
Inhibitory activity of dye accumulation into solid tumor (1.25 mg/kg): + | Inhibitory activity of dye accumulation into solid tumor (10 mg/kg): +

O[C@@H]1C[C@H](Oc2nc(N3CCNCC3)nc3ccccc23)C[C@@H]1O [Compound AN, 4-[(c-3,c-4-Dihydroxycyclopentan-r-1-yl)oxy]-2-(1-piperazinyl)quinazoline monohydrochloride]
Inhibitory activity of dye accumulation into solid tumor (1.25 mg/kg): + | Inhibitory activity of dye accumulation into solid tumor (10 mg/kg): +

O[C@@H]1[C@H](O)[C@@H](Oc2nc(N3CCNCC3)nc3ccccc23)C[C@H]1O [Compound AP, 4-[(1S,2S,3S,4R)-(2,3,4-Trihydroxycyclopentan-1-yl)oxy]-2-(1-piperazinyl)quinazoline 1/2 fumarate]
Inhibitory activity of dye accumulation into solid tumor (1.25 mg/kg): + | Inhibitory activity of dye accumulation into solid tumor (10 mg/kg): +

O[C@@H]1[C@H](O)[C@@H](O)C[C@H]1Oc1nc(N2CCNCC2)nc2ccccc12 [Compound AQ, 4-[(1R,2R,3R,4S)-(2,3,4-Trihydroxycyclopentan-1-yl)oxy]-2-(1-piperazinyl)quinazoline 1/2 fumarate]
Inhibitory activity of dye accumulation into solid tumor (1.25 mg/kg): + | Inhibitory activity of dye accumulation into solid tumor (10 mg/kg): +

CO[C@@H]1C[C@H](Oc2nc(N3CCNCC3)nc3ccccc23)[C@@H](O)[C@H]1O [Compound AR, 4-[(1S,2S,3R,4R)-(2,3-Dihydroxy-4-methoxy-cyclopentan-1-yl)oxy]-2-(1-piperazinyl)quinazoline 1/2 fumarate]
Inhibitory activity of dye accumulation into solid tumor (1.25 mg/kg): + | Inhibitory activity of dye accumulation into solid tumor (10 mg/kg): +

CO[C@H]1C[C@@H](Oc2nc(N3CCNCC3)nc3ccccc23)[C@H](O)[C@@H]1O [Compound AS, 4-[(1R,2R,3S,4S)-(2,3-Dihydroxy-4-methoxy-cyclopentan-1-yl)oxy]-2-(1-piperazinyl)quinazoline 1/2 fumarate]
Inhibitory activity of dye accumulation into solid tumor (1.25 mg/kg): + | Inhibitory activity of dye accumulation into solid tumor (10 mg/kg): +

CO[C@H]1C[C@@H](Oc2nc(N3CCNCC3)nc3ccccc23)[C@H](O)[C@@H]1O.Cl [Compound AT, 4-[(1R,2R,3S,4S)-(2,3-Dihydroxy-4-methoxy-cyclopentan-1-yl)oxy]-2-(1-piperazinyl)quinazoline mono-hydrochloride]
Inhibitory activity of dye accumulation into solid tumor (1.25 mg/kg): + | Inhibitory activity of dye accumulation into solid tumor (10 mg/kg): +

CC(=O)O.OCCOc1nc(N2CCNCC2)nc2ccccc12 [Compound BA, 4-[(2-Hydroxyethyl)oxy]-2-(1-piperazinyl)-quinazoline monoacetate]
Inhibitory activity of dye accumulation into solid tumor (1.25 mg/kg): + | Inhibitory activity of dye accumulation into solid tumor (10 mg/kg): +

CC(=O)O.C[C@H](O)[C@H](C)Oc1nc(N2CCNCC2)nc2ccccc12 [Compound BD, 4-[(2S,3S)-(3-Hydroxybutan-2-yl)oxy]-2-(1-piperazinyl)quinazoline monoacetate]
Inhibitory activity of dye accumulation into solid tumor (10 mg/kg): +

CC(=O)O.C[C@@H](O)[C@@H](C)Oc1nc(N2CCNCC2)nc2ccccc12 [Compound BE, 4-[(2R,3R)-(3-Hydroxybutan-2-yl)oxy]-2-(1-piperazinyl)quinazoline monoacetate]
Inhibitory activity of dye accumulation into solid tumor (10 mg/kg): +

C[C@H](O)[C@@H](O)COc1nc(N2CCNCC2)nc2ccccc12.Cl [Compound BG, 4-[(2S,3S)-(2,3-Dihydroxybutan-1-yl)oxy]-2-(1-piperazinyl)quinazoline monohydrochloride]
Inhibitory activity of dye accumulation into solid tumor (1.25 mg/kg): + | Inhibitory activity of dye accumulation into solid tumor (10 mg/kg): +

C[C@@H](O)[C@H](O)COc1nc(N2CCNCC2)nc2ccccc12.Cl [Compound BH, 4-[(2R,3R)-(2,3-Dihydroxybutan-1-yl)oxy]-2-(1-piperazinyl)quinazoline monohydrochloride]
Inhibitory activity of dye accumulation into solid tumor (1.25 mg/kg): + | Inhibitory activity of dye accumulation into solid tumor (10 mg/kg): +
